Test results: patent US10765114B2, “4-amino-6-(pyridyl and 2-substitutedphenyl)-picolinates and 6-amino-2-(pyridyl and 2-substitutedphenyl)-pyrimidine-4-carboxylates and their use as herbicides” (Dow AgroSciences LLC, priority 2013, dated 2020)
Where two headings read alike, the source gives them in different places.

Assays:
[1] = test system: Key Broadleaf Weed and Crop Species; test: Post-Emergent Test II (Table 5); assay type: in vivo; conditions: post-emergence, 336 h; for pest or weed control at 70 g/ha: application rate 70 (kg ai/ha; footnote: g ai/ha); for pest or weed control at 140 g/ha: application rate 140 (kg ai/ha; footnote: g ai/ha)
Summary of the method: (§1)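 Post-emergence greenhouse spray, 1st-2nd true leaf stage; track sprayer, 187 L/ha; acetone/DMSO stock diluted in aqueous acetone/IPA/DMSO with Atplus 411F and Triton X-155; rates 1× to 1/16×; subirrigated; visual injury 0 (none) to 100% (complete kill) at 14 days.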

[2] = test system: Key Grass and Sedge Weeds as well as Grass Crops; test: Post-Emergent Test II (Table 6); assay type: in vivo; conditions: post-emergence, 336 h, 14 days after application; for pest or weed control at 70 g/ha: 70 g ai/ha; for pest or weed control at 140 g/ha: 140 g ai/ha
Summary of the method: as §1

[3] = Abutilon theophrasti, ABUTH: velvetleaf (Abutilon theophrasti), read-out: Visual Growth Reduction (%) 14 Days After Application ABUTH
[4] = Amaranthus retroflexus, AMARE: redroot pigweed (Amaranthus retroflexus), read-out: Visual Growth Reduction (%) 14 Days After Application AMARE
[5] = Brassica napus, BRSSS: oilseed rape, canola (Brassica napus), read-out: Visual Growth Reduction (%) 14 Days After Application BRSSS
[6] = Chenopodium album, CHEAL: lambsquarters (Chenopodium album), read-out: Visual Growth Reduction (%) 14 Days After Application CHEAL
[7] = Euphorbia heterophylla, EPHHL: wild poinsettia (Euphorbia heterophylla), read-out: Visual Growth Reduction (%) 14 Days After Application EPHHL
[8] = Helianthus annuus, HELAN: sunflower (Helianthus annuus), read-out: Visual Growth Reduction (%) 14 Days After Application HELAN
[9] = Viola tricolor, VIOTR: wild pansy (Viola tricolor), read-out: Visual Growth Reduction (%) 14 Days After Application VIOTR
[10] = CYPSS, read-out: Visual Growth Reduction (%) 14 Days After Application CYPSS
[11] = DIGSA: crabgrass (Digitaria sanguinalis), read-out: Visual Growth Reduction (%) 14 Days After Application DIGSA
[12] = ECHSS, read-out: Visual Growth Reduction (%) 14 Days After Application ECHSS
[13] = ORYSS (crop), read-out: Visual Growth Reduction (%) 14 Days After Application ORYSS
[14] = SETFA: giant foxtail (Setaria faberi), read-out: Visual Growth Reduction (%) 14 Days After Application SETFA
[15] = SORVU: grain sorghum (Sorghum vulgare), read-out: Visual Growth Reduction (%) 14 Days After Application SORVU
[16] = TRZSS (crop), read-out: Visual Growth Reduction (%) 14 Days After Application TRZSS
[17] = ZEAMX: maize, corn (Zea mays), read-out: Visual Growth Reduction (%) 14 Days After Application ZEAMX

Structure (SMILES) | pest or weed control at 70 g/ha [1, 3] [%] | pest or weed control at 140 g/ha [1, 3] [%] | pest or weed control at 70 g/ha [1, 4] [%] | pest or weed control at 140 g/ha [1, 4] [%] | pest or weed control at 70 g/ha [1, 5] [%] | pest or weed control at 140 g/ha [1, 5] [%] | pest or weed control at 70 g/ha [1, 6] [%] | pest or weed control at 140 g/ha [1, 6] [%] | pest or weed control at 70 g/ha [1, 7] [%] | pest or weed control at 140 g/ha [1, 7] [%] | pest or weed control at 70 g/ha [1, 8] [%] | pest or weed control at 140 g/ha [1, 8] [%] | pest or weed control at 70 g/ha [1, 9] [%] | pest or weed control at 140 g/ha [1, 9] [%] | pest or weed control at 70 g/ha [2, 10] [%] | pest or weed control at 140 g/ha [2, 10] [%] | pest or weed control at 70 g/ha [2, 11] [%] | pest or weed control at 140 g/ha [2, 11] [%] | pest or weed control at 70 g/ha [2, 12] [%] | pest or weed control at 140 g/ha [2, 12] [%] | further results
COC(=O)c1nc(-c2ccc(Cl)c(F)c2OC)cc(N)c1Cl [Compound 20] | 95 to 100 | 95 to 100 | 95 to 100 | 95 to 100 | 95 to 100 | 95 to 100 | 95 to 100 | 95 to 100 | 0 to 29 | 0 to 29 | 85 to 94 | 95 to 100 | 95 to 100 | 95 to 100 | 30 to 44 | 45 to 59 | 0 to 29 | 45 to 59 | 60 to 74 | 75 to 84 | pest or weed control at 70 g/ha [2, 13]: 0 to 29%; pest or weed control at 140 g/ha [2, 13]: 0 to 29%; pest or weed control at 70 g/ha [2, 14]: 30 to 44%; pest or weed control at 140 g/ha [2, 14]: 60 to 74%; pest or weed control at 70 g/ha [2, 15]: 0 to 29%; pest or weed control at 140 g/ha [2, 15]: 30 to 44%; pest or weed control at 70 g/ha [2, 16]: 0 to 29%; pest or weed control at 140 g/ha [2, 16]: 30 to 44%; pest or weed control at 70 g/ha [2, 17]: 85 to 94%; pest or weed control at 140 g/ha [2, 17]: 85 to 94%
Nc1cc(-c2ccc(Cl)c(F)c2C(=O)O)nc(C(=O)O)c1Cl [Compound 56, 4-Amino-6-(2-carboxy-4-chloro-3-fluorophenyl)-3-chloropicolinic acid] | 0 to 29 | 0 to 29 | 0 to 29 | 0 to 29 | 0 to 29 | 0 to 29 | 45 to 59 | 75 to 84 | 0 to 29 | 0 to 29 | 0 to 29 | 0 to 29 | 0 to 29 | 0 to 29 | 0 to 29 | 0 to 29 | 0 to 29 | 0 to 29 | 0 to 29 | 0 to 29 | pest or weed control at 70 g/ha [2, 13]: 0 to 29%; pest or weed control at 140 g/ha [2, 13]: 0 to 29%; pest or weed control at 70 g/ha [2, 14]: 0 to 29%; pest or weed control at 140 g/ha [2, 14]: 0 to 29%; pest or weed control at 70 g/ha [2, 15]: 0 to 29%; pest or weed control at 140 g/ha [2, 15]: 0 to 29%; pest or weed control at 70 g/ha [2, 16]: 0 to 29%; pest or weed control at 140 g/ha [2, 16]: 0 to 29%; pest or weed control at 70 g/ha [2, 17]: 0 to 29%; pest or weed control at 140 g/ha [2, 17]: 0 to 29%
COC(=O)c1nc(-c2ccc(I)nc2)c(F)c(N)c1Cl [Compound 54, methyl 4-amino-5-chloro-3-fluoro-6′-Iodo-[2,3′-bipyridine]-6-carboxylate] | 85 to 94 | 85 to 94 | 85 to 94 | 85 to 94 | 85 to 94 | 95 to 100 | 95 to 100 | 95 to 100 | 75 to 84 | 85 to 94 | 85 to 94 | 95 to 100 | 75 to 84 | 85 to 94 | 75 to 84 | 85 to 94 | 60 to 74 | 75 to 84 | 75 to 84 | 85 to 94 | pest or weed control at 70 g/ha [2, 13]: 0 to 29%; pest or weed control at 140 g/ha [2, 13]: 0 to 29%; pest or weed control at 70 g/ha [2, 14]: 60 to 74%; pest or weed control at 140 g/ha [2, 14]: 60 to 74%; pest or weed control at 70 g/ha [2, 15]: 45 to 59%; pest or weed control at 140 g/ha [2, 15]: 60 to 74%; pest or weed control at 70 g/ha [2, 16]: 60 to 74%; pest or weed control at 140 g/ha [2, 16]: 75 to 84%; pest or weed control at 70 g/ha [2, 17]: 45 to 59%; pest or weed control at 140 g/ha [2, 17]: 60 to 74%
